According to ChEMBL document CHEMBL3352708, “Discovery of oxazole and triazole derivatives as potent and selective S1P(1) agonists through pharmacophore-guided design” (Eur J Med Chem, 2014):

How the values were obtained:
in vivo [1] = conditions: Sprague-Dawley, rat, po, 3 mg/kg
Rattus norvegicus [2] = species on record: Rattus norvegicus; conditions: in vivo, po, 3 mg/kg
Rattus norvegicus [3] = species on record: Rattus norvegicus; conditions: in vivo, po, 3 mg/kg; remark: listed apart in the source
in vivo [4] = conditions: Sprague-Dawley, rat, po, 3 mg/kg; remark: listed apart in the source
Rattus norvegicus [5] = species on record: Rattus norvegicus; conditions: in vivo, po, 3 mg/kg; remark: listed apart in the source
in vivo [6] = conditions: Sprague-Dawley, rat, plasma, po, 3 mg/kg
in vivo [7] = conditions: Sprague-Dawley, rat, po, 3 mg/kg; remark: listed apart in the source
in vivo [8] = conditions: Sprague-Dawley, rat, po, 3 mg/kg; remark: listed apart in the source
in vivo [9] = conditions: Sprague-Dawley, rat, po, 3 mg/kg; remark: listed apart in the source

Cmax (in vivo [1])	AUCt (Rattus norvegicus [2])	t1/2 (Rattus norvegicus [3])	Tmax (in vivo [4])	Vss/F (Rattus norvegicus [5])	AUC(0-t) (in vivo [6])	half-life (in vivo [7])	Vd/F (in vivo [8])	CL/F (in vivo [9])	Structure (SMILES)
385 ng/mL	4910 ng·h/mL	25.2 h	6 h	17.2 L/kg					CCCCCCCCc1ccc(CCC(N)(CO)COP(=O)(O)O)cc1 (stereo not drawn)
9.51 ng/mL			4.7 h		73.4 ng·h/mL	5.2 h	300 L/kg	692 mL/min/kg	COc1ccc(-c2nc(-c3ccc(CCC(N)(CO)CO)cc3)co2)cc1.Cl
28.5 ng/mL			6.7 h		900 ng·h/mL	18.8 h	60 L/kg	36.7 mL/min/kg	Cl.NC(CO)(CO)CCc1ccc(-c2coc(-c3ccc(Cl)cc3)n2)cc1
109 ng/mL			4 h		1700 ng·h/mL	21.1 h	44.1 L/kg	25 mL/min/kg	Cl.NC(CO)(CO)CCc1ccc(-c2coc(Cc3ccc(Cl)cc3)n2)cc1
13.2 ng/mL	319 ng·h/mL	18.9 h	8.4 h	208 L/kg					CCCCCCCCc1ccc(CCC(N)(CO)CO)cc1 [FINGOLIMOD]
